In patent US20260215428A1, “WEED CONTROL METHOD” (SYNGENTA CROP PROTECTION AG, priority 2023, published 2026):

Experiments:
Lolium multiflorum [1] = experiment: Further glasshouse test versus other ACCase-inhibiting herbicides, Table B2-1; assay type: in vivo; conditions: 21 days after application
Source text: Further tests were employed to test the efficacy of a compound of Formula I versus other ACCase-inhibiting herbicides. The five main targets were Lolium multiflorum, Eleusine indica, Digitaria insularis, Sorghum halepense and Echinochloa crus-galli. Collectively, the populations contained all the major target-site resistance mutations affecting ACCase herbicides. Two L. multiflorum (LM-NTSR-1 and LM-NTSR-2) and one E. crus-galli (ECG-NTSR-1) populations were characterised exclusively by non-target-site resistance (“NTSR”). The target-site resistant L. multiflorum and E. indication populations were 100% homozygous for different ACCase mutations whilst the D. insularis, S. halepense and E. crus-galli samples contained a mixture of homozygous wild and mutant individuals at different genotypic frequencies. Additional underlying NTSR cannot be ruled out in the populations characterised by target-site resistance.
Around 50 seeds of each of the 24 weed populations were sown in 12-cm pots containing a mixture of peat and compost in a 1:1 ratio. The pots were watered, fertilised and kept in controlled glasshouse conditions set at 24° C./16 hr day, 18° C. night, 65% relative humidity, and a photon flux density of approximately 250 μmol quanta m^−2 s^−1 for Lolium multiflorum. The E. indica, D. insularis, S. halepense and E. crus-galli plants were kept in a separate glasshouse bay characterised by a 17 H photoperiod of 180 μmol m^−2 s^−1 with temperatures of 25° C. day and 19° C. night and 65% relative humidity. When the plants were at the two to four-leaf stage, they were treated with the various ACCase-inhibiting herbicides at 0, 15, 30, 60, 120 and 240 g ai ha^−1 in a spray cabinet mounted with a single mobile Teejet flat fan nozzle (11002VS) calibrated to deliver 200 L ha^−1 at 200 kPa. The L. multiflorum populations were treated by a compound of Formula Ic, clodinafop-propargyl, pinoxaden, cycloxydim and clethodim and the warm season grass weeds E. indica, D. insularis, S. halepense and E. crus-galli were sprayed with a Compound Ic and the commonly employed haloxyfop-methyl and clethodim. Three replicate pots were used per population. Plants were assessed for visual damage compared to the untreated control 21 days after application (0=0% damage; 100=100% damage).

Lolium multiflorum [2] = experiment: Glasshouse post-emergence test, visual damage, Table B1-1; assay type: in vivo
Experimental: Seeds of a variety of test species are sown in standard soil in pots. For each treatment, three replicate pots containing 10-15 plants per one-inch pot were sprayed at the 2-3 leaf stage. Clethodim and Compound (Ic) were each applied at 15, 30, 60 and 120 g ai/ha. The test plants are then grown in a glasshouse under controlled conditions in a glasshouse (at 24/16° C., day/night; 14 hours light; 65% humidity) and watered twice daily. […]

[3] = population LM-NTSR-1 (non-target-site resistance), 15 g/ha
[4] = population LM-NTSR-1 (non-target-site resistance), 30 g/ha
[5] = population LM-NTSR-1 (non-target-site resistance), 60 g/ha
[6] = population LM-NTSR-1 (non-target-site resistance), 120 g/ha
[7] = population LM-NTSR-1 (non-target-site resistance), 240 g/ha
[8] = population LM-NTSR-2 (non-target-site resistance), 15 g/ha
[9] = population LM-NTSR-2 (non-target-site resistance), 30 g/ha
[10] = population LM-NTSR-2 (non-target-site resistance), 60 g/ha
[11] = population LM-NTSR-2 (non-target-site resistance), 120 g/ha
[12] = population LM-NTSR-2 (non-target-site resistance), 240 g/ha
[13] = biotype CC2027 (homozygous), 15 g/ha, 14 days after application
[14] = biotype CC2027 (homozygous), 30 g/ha, 14 days after application
[15] = biotype CC2027 (homozygous), 60 g/ha, 14 days after application
[16] = biotype CC2027 (homozygous), 120 g/ha, 14 days after application
[17] = biotype GG2078 (homozygous), 15 g/ha, 14 days after application
[18] = biotype GG2078 (homozygous), 30 g/ha, 14 days after application
[19] = biotype GG2078 (homozygous), 60 g/ha, 14 days after application
[20] = biotype GG2078 (homozygous), 120 g/ha, 14 days after application
[21] = biotype LL1781 (homozygous), 15 g/ha, 14 days after application
[22] = biotype LL1781 (homozygous), 30 g/ha, 14 days after application
[23] = biotype LL1781 (homozygous), 60 g/ha, 14 days after application
[24] = biotype LL1781 (homozygous), 120 g/ha, 14 days after application
[25] = biotype NN2041 (homozygous), 15 g/ha, 14 days after application
[26] = biotype NN2041 (homozygous), 30 g/ha, 14 days after application
[27] = biotype NN2041 (homozygous), 60 g/ha, 14 days after application
[28] = biotype NN2041 (homozygous), 120 g/ha, 14 days after application
[29] = biotype RR2088 (homozygous), 15 g/ha, 14 days after application
[30] = biotype RR2088 (homozygous), 30 g/ha, 14 days after application
[31] = biotype RR2088 (homozygous), 60 g/ha, 14 days after application
[32] = biotype RR2088 (homozygous), 120 g/ha, 14 days after application
[33] = biotype SS1999 (homozygous), 15 g/ha, 21 DAA
[34] = biotype SS1999 (homozygous), 30 g/ha, 21 DAA
[35] = biotype SS1999 (homozygous), 60 g/ha, 21 DAA
[36] = biotype SS1999 (homozygous), 120 g/ha, 21 DAA
[37] = biotype Sensitive, 15 g/ha, 14 days after application
[38] = biotype Sensitive, 30 g/ha, 14 days after application
[39] = biotype Sensitive, 60 g/ha, 14 days after application
[40] = biotype Sensitive, 120 g/ha, 14 days after application

Measured: visual damage

CC#Cc1ccc(C2=C(OC(=O)OC)C3CCC(C3)C2=O)c(OC)c1 (stereo not shown) [Compound Ic]
100%: Lolium multiflorum [1]; biotype C2088R, 15 g/ha | Lolium multiflorum [1]; biotype C2088R, 30 g/ha | Lolium multiflorum [1]; biotype C2088R, 60 g/ha | Lolium multiflorum [1]; biotype C2088R, 120 g/ha | Lolium multiflorum [1]; biotype C2088R, 240 g/ha | Lolium multiflorum [1]; biotype D2078G, 60 g/ha | Lolium multiflorum [1]; biotype D2078G, 120 g/ha | Lolium multiflorum [1]; biotype D2078G, 240 g/ha | Lolium multiflorum [1]; biotype I1781L, 15 g/ha | Lolium multiflorum [1]; biotype I1781L, 30 g/ha | Lolium multiflorum [1]; biotype I1781L, 60 g/ha | Lolium multiflorum [1]; biotype I1781L, 120 g/ha | Lolium multiflorum [1]; biotype I1781L, 240 g/ha | Lolium multiflorum [1]; biotype Sensitive, 15 g/ha | Lolium multiflorum [1]; biotype Sensitive, 30 g/ha | Lolium multiflorum [1]; biotype Sensitive, 60 g/ha | Lolium multiflorum [1]; biotype Sensitive, 120 g/ha | Lolium multiflorum [1]; biotype Sensitive, 240 g/ha | Lolium multiflorum [1]; biotype W1999S, 30 g/ha | Lolium multiflorum [1]; biotype W1999S, 60 g/ha | Lolium multiflorum [1]; biotype W1999S, 120 g/ha | Lolium multiflorum [1]; biotype W1999S, 240 g/ha | Lolium multiflorum [1]; biotype W2027C, 30 g/ha | Lolium multiflorum [1]; biotype W2027C, 60 g/ha | Lolium multiflorum [1]; biotype W2027C, 120 g/ha | Lolium multiflorum [1]; biotype W2027C, 240 g/ha | Lolium multiflorum [1]; [4] | Lolium multiflorum [1]; [5] | Lolium multiflorum [1]; [6] | Lolium multiflorum [1]; [7] | Lolium multiflorum [1]; [11] | Lolium multiflorum [1]; [12] | Lolium multiflorum [2]; [13] | Lolium multiflorum [2]; [14] | Lolium multiflorum [2]; [15] | Lolium multiflorum [2]; [16] | Lolium multiflorum [2]; [18] | Lolium multiflorum [2]; [19] | Lolium multiflorum [2]; [20] | Lolium multiflorum [2]; [21] | Lolium multiflorum [2]; [22] | Lolium multiflorum [2]; [23] | Lolium multiflorum [2]; [24] | Lolium multiflorum [2]; [26] | Lolium multiflorum [2]; [27] | Lolium multiflorum [2]; [28] | Lolium multiflorum [2]; [29] | Lolium multiflorum [2]; [30] | Lolium multiflorum [2]; [31] | Lolium multiflorum [2]; [32] | Lolium multiflorum [2]; [34] | Lolium multiflorum [2]; [35] | Lolium multiflorum [2]; [36] | Lolium multiflorum [2]; [37] | Lolium multiflorum [2]; [38] | Lolium multiflorum [2]; [39] | Lolium multiflorum [2]; [40]
82%: Lolium multiflorum [1]; [9]
47%: Lolium multiflorum [2]; [25]
40%: Lolium multiflorum [2]; [17]
90%: Lolium multiflorum [1]; biotype D2078G, 30 g/ha
85%: Lolium multiflorum [1]; biotype W1999S, 15 g/ha | Lolium multiflorum [2]; [33]
93%: Lolium multiflorum [1]; [3]
88%: Lolium multiflorum [1]; biotype W2027C, 15 g/ha
87%: Lolium multiflorum [1]; [10]
48%: Lolium multiflorum [1]; [8]
20%: Lolium multiflorum [1]; biotype D2078G, 15 g/ha

CCSC(C)CC1CC(=O)C(/C(CC)=N/OC/C=C/Cl)=C(O)C1 (stereo not shown) [Clethodim, clethodim]
0%: Lolium multiflorum [1]; biotype C2088R, 15 g/ha | Lolium multiflorum [2]; [17] | Lolium multiflorum [2]; [29]
20%: Lolium multiflorum [2]; [18] | Lolium multiflorum [2]; [19] | Lolium multiflorum [2]; [30]
23%: Lolium multiflorum [1]; biotype I1781L, 15 g/ha | Lolium multiflorum [2]; [21]
100%: Lolium multiflorum [1]; biotype C2088R, 240 g/ha | Lolium multiflorum [1]; biotype D2078G, 240 g/ha | Lolium multiflorum [1]; biotype I1781L, 120 g/ha | Lolium multiflorum [1]; biotype I1781L, 240 g/ha | Lolium multiflorum [1]; biotype Sensitive, 15 g/ha | Lolium multiflorum [1]; biotype Sensitive, 30 g/ha | Lolium multiflorum [1]; biotype Sensitive, 60 g/ha | Lolium multiflorum [1]; biotype Sensitive, 120 g/ha | Lolium multiflorum [1]; biotype Sensitive, 240 g/ha | Lolium multiflorum [1]; biotype W1999S, 60 g/ha | Lolium multiflorum [1]; biotype W1999S, 120 g/ha | Lolium multiflorum [1]; biotype W1999S, 240 g/ha | Lolium multiflorum [1]; biotype W2027C, 30 g/ha | Lolium multiflorum [1]; biotype W2027C, 60 g/ha | Lolium multiflorum [1]; biotype W2027C, 120 g/ha | Lolium multiflorum [1]; biotype W2027C, 240 g/ha | Lolium multiflorum [1]; [5] | Lolium multiflorum [1]; [6] | Lolium multiflorum [1]; [7] | Lolium multiflorum [2]; [15] | Lolium multiflorum [2]; [16] | Lolium multiflorum [2]; [26] | Lolium multiflorum [2]; [27] | Lolium multiflorum [2]; [28] | Lolium multiflorum [2]; [35] | Lolium multiflorum [2]; [36] | Lolium multiflorum [2]; [40]
95%: Lolium multiflorum [1]; [12]
75%: Lolium multiflorum [1]; [11]
55%: Lolium multiflorum [1]; [9]
90%: Lolium multiflorum [1]; biotype C2088R, 120 g/ha
37%: Lolium multiflorum [2]; [22]
60%: Lolium multiflorum [2]; [23] | Lolium multiflorum [2]; [31] | Lolium multiflorum [2]; [32]
70%: Lolium multiflorum [1]; biotype D2078G, 120 g/ha | Lolium multiflorum [1]; biotype I1781L, 60 g/ha | Lolium multiflorum [1]; [10] | Lolium multiflorum [2]; [24] | Lolium multiflorum [2]; [25]
3%: Lolium multiflorum [1]; [8]
50%: Lolium multiflorum [2]; [20]
10%: Lolium multiflorum [1]; biotype D2078G, 15 g/ha
99%: Lolium multiflorum [2]; [39]
53%: Lolium multiflorum [1]; biotype I1781L, 30 g/ha | Lolium multiflorum [2]; [13] | Lolium multiflorum [2]; [37]
13%: Lolium multiflorum [1]; biotype C2088R, 30 g/ha
17%: Lolium multiflorum [1]; biotype D2078G, 30 g/ha
98%: Lolium multiflorum [1]; biotype W1999S, 30 g/ha | Lolium multiflorum [2]; [34]
40%: Lolium multiflorum [1]; biotype C2088R, 60 g/ha
77%: Lolium multiflorum [2]; [14]
73%: Lolium multiflorum [2]; [38]
27%: Lolium multiflorum [1]; biotype D2078G, 60 g/ha | Lolium multiflorum [1]; biotype W1999S, 15 g/ha | Lolium multiflorum [2]; [33]
63%: Lolium multiflorum [1]; biotype W2027C, 15 g/ha | Lolium multiflorum [1]; [3]
97%: Lolium multiflorum [1]; [4]
